{
  "source": "patent US20130261142A1",
  "about": "“COMPOUNDS USED FOR TREATING CANCER AND THE USE THEREOF” (priority 2010, published 2013)",
  "key": {"CP70 sps cells [1]": {"system": "CP70 sps cells", "test": "Cytotoxicity / vitality of CP70 sps cells (MTS assay)", "settings": "FIG. 14 / FIG. 15", "procedure": "(§1) The vitality of the treated cells was measured by MTS assay using MTS-based CellTiter 96 aqueous non-radioactive cell proliferation assay kit (Promega) according to the manufacturer's instructions.\nThe vitality of the CP70 sps cells was measured by MTS assay. For preclinical test, two groups with five mice each were i.p. injected with 1×10^4 of CP70 sps cells alone or followed by Niclosamide treatment (10 mg/kg/daily) from day 1 to day 47, respectively. The body weights of the two groups of mice were monitored every 3 days during day 36 to day 48. After 48 days, the mice were sacrificed to examine the tumor nodules formation in the abdominal cavity."}, "MCF-7 SPS cells [2]": {"system": "MCF-7 SPS cells", "test": "LOPAC compounds tested on MCF-7 SPS cells (Table 2)", "settings": "Compounds that inhibit cancer stem cells, 3 μM stated for Niclosamide", "source_text": "(§2) The morphology and number of the spheroids were further analyzed by software image pro plus."}, "CP70 sps cells [3]": {"system": "CP70 sps cells", "test": "CP70 sps tumors in NOD/SCID mice (preclinical test)", "assay_type": "in vivo", "quoted_text": "For preclinical test, two groups with five mice each were i.p. injected with 1×10^4 of CP70 sps cells alone or followed by Niclosamide treatment (10 mg/kg/daily) from day 1 to day 47, respectively. […] After 48 days, the mice were sacrificed to examine the tumor nodules formation in the abdominal cavity."}, "MDA-MB 231 cells": {"system": "MDA-MB 231 cells", "test": "Inhibition of MDA-MB 231 cells", "assay_type": "cell-based, human", "settings": "3 μM"}, "Cyclin D1": {"system": "Cyclin D1", "test": "Protein expression in Niclosamide-treated MCF-7 sps cells: Cyclin D1", "assay_type": "cell-based", "settings": "MCF-7 sps cells treated with Niclosamide"}, "MDA-MB231 SPS cells": {"system": "MDA-MB231 SPS cells", "test": "Survival of MDA-MB231 SPS cells", "assay_type": "cell-based, human", "settings": "following Niclosamide treatment"}, "PTCH": {"system": "PTCH", "test": "Protein expression in Niclosamide-treated MCF-7 sps cells: PTCH", "assay_type": "cell-based", "settings": "MCF-7 sps cells treated with Niclosamide"}, "Hes-1": {"system": "Hes-1", "test": "Protein expression in Niclosamide-treated MCF-7 sps cells: Hes-1", "assay_type": "cell-based", "settings": "MCF-7 sps cells treated with Niclosamide"}, "MCF-7 SPS cells [4]": {"system": "MCF-7 SPS cells", "test": "MCF-7 SPS spheroid proliferation and differentiation", "source_text": "as §2"}, "MCF-7 sps cells [5]": {"system": "MCF-7 sps cells", "test": "MCF-7 sps tumors in NOD/SCID mice", "assay_type": "in vivo", "settings": "MCF-7 sps cells in NOD/SCID mice, 5 μM Niclosamide"}, "[6]": {"system": "OVCICs sps cells collected from ovarian cancer patient(s)", "test": "Patients' OVCA specimen-derived cells (pdOVCICs / OVCICs sps), MTS assay", "assay_type": "cell-based, human", "settings": "in vitro", "procedure": "A total of 5000 pdOVCICs were seeded onto each well in 96-well plates and each plate was treated with different concentrations of Niclosamide in duplicates for 3 days. The vitality of pdOVCICs cells was measured by MTS assay."}, "OVCA sps cells": {"system": "OVCA sps cells", "test": "LOPAC compounds tested on OVCA sps cells, MTS / ATP-based assay (Table 3)", "assay_type": "cell-based", "settings": "proliferation and differentiation", "procedure": "CP70 sps cells were seeded in a 96-well culture plate (1×10^3 cells/well) and cultured for 24 hr, and then treated with 30 μM of various compounds selected from the LOPAC database. Following 3-day treatment, the vitality of the treated cells was measured by CellTiter-Glo® Luminescent Cell Vitality Assay kit (Promega) according to the manufacturer's instructions.\nas §1"}, "OCT4": {"system": "OCT4", "test": "Flow cytometry of OCT4 in MCF-7 sps cells", "assay_type": "cell-based", "settings": "5 μM"}},
  "note": "“Also recorded” adds a separate entry of the source.",
  "data": [
    {"smiles": "O=C(Nc1ccc([N+](=O)[O-])cc1Cl)c1cc(Cl)ccc1O", "note": "[Niclosamide]", "values": [
      {"measurement": "numbers of ovarian cancer stem cells in CP70 SPS cell culture in vitro", "setting": "CP70 sps cells [1]", "value": "inhibited"},
      {"measurement": "Cancer cell survival (%)", "setting": "MCF-7 SPS cells [2]", "value": 1.4, "unit": "%"},
      {"measurement": "sizes and weights of the tumors vs untreated mice", "setting": "CP70 sps cells [3]; CP70 sps cells in NOD/SCID mice, 5 μM Niclosamide", "value": "significantly different; also recorded: smaller and lighter"},
      {"measurement": "inhibition on cancer stem cells in pre-clinical ovarian cancer studies", "setting": "CP70 sps cells [3]; mouse, in vivo", "value": "successful inhibition"},
      {"measurement": "numbers of ovarian cancer cells in the tumors", "setting": "CP70 sps cells [3]; tumors from Niclosamide-treated animals (FIG. 13B)", "value": "inhibited"},
      {"measurement": "inhibition of MDA-MB 231 cells", "setting": "MDA-MB 231 cells", "value": "significantly inhibited"},
      {"measurement": "inhibition of Cyclin D1 expression", "setting": "Cyclin D1", "value": 57.4, "unit": "%"},
      {"measurement": "survival of MDA-MB231 SPS cells", "setting": "MDA-MB231 SPS cells", "value": "negatively correlated with the treatment"},
      {"measurement": "inhibition of PTCH expression", "setting": "PTCH", "value": 79.2, "unit": "%"},
      {"measurement": "inhibition of Hes-1 expression", "setting": "Hes-1", "value": 33.1, "unit": "%"},
      {"measurement": "inhibition of MCF-7 sps cells", "setting": "MCF-7 SPS cells [4]; 3 μM", "value": "significantly inhibited"},
      {"measurement": "proliferation and differentiation of the spheroid", "setting": "MCF-7 SPS cells [4]; MCF-7 SPS, 3 μM and 30 μM for 48 hr", "value": "efficiently inhibit"},
      {"measurement": "differentiation and proliferation / formation of MCF-7 SPS cells", "setting": "MCF-7 SPS cells [4]; concentration not given", "value": "inhibit the formation; also recorded: significantly inhibited"},
      {"measurement": "sizes and weights of the tumors vs untreated mice", "setting": "MCF-7 sps cells [5]", "value": "smaller and lighter"},
      {"measurement": "differentiation and growth of ovarian cancer cells", "setting": "[6]", "value": "successfully inhibited"},
      {"measurement": "Cancer cell survival (%)", "setting": "OVCA sps cells", "value": 34.86, "unit": "%"},
      {"measurement": "expression of OCT4", "setting": "OCT4", "value": "higher expression"}
    ]}
  ]
}
